In ChEMBL document CHEMBL4425099, “Use of Osmotic Pumps to Establish the Pharmacokinetic-Pharmacodynamic Relationship and Define Desirable Human Performance Characteristics for Aggrecanase Inhibitors” (J Med Chem, 2016):

Columns and labels:
Matrilysin = target: T1, Matrilysin (Homo sapiens, UniProt P09237); assay: Inhibition of human MMP7 using Mca-PQGL-(3-[2,4-dinitrophenyl]-L-2,3-diaminopropionyl)-AR-OH as substrate measured after 2 to 4 hrs by fluorescence analysis
T1 sequence (P09237 whole entry): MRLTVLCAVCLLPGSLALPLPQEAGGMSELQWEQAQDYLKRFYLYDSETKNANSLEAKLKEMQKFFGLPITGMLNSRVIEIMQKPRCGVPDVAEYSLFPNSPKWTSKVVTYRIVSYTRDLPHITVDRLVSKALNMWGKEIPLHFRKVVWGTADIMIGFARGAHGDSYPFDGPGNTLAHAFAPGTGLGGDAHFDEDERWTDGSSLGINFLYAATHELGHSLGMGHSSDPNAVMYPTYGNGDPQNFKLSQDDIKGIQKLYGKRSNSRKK

[1] = Plasma concentration in Lewis rat model of MIA at 10 mg/kg, po bid administered post 3 days MIA induction measured after 4 hrs of last dosage on day 7; format: ADME, organism-based
[2] = Cmax in Lewis rat plasma at 10 mg/kg, po; format: ADME, organism-based; set-up: dose 10 mg/kg, route oral
Rattus norvegicus [3] = assay: Reduction in ADAMTS-4/ADAMTS-5 mediated aggrecan cleavage products in Lewis rat model of MIA assessed as aggrecanase-cleaved fragments at 100 mg/kg, po bid administered post 3 days MIA induction measured after 4 hrs of last dosage on day 7 by NITEGE sandwich ELISA; format: functional
[4] = Ratio of plasma concentration in Lewis rat model of MIA at 100 mg/kg, po bid administered post 3 days MIA induction measured after 4 hrs of last dosage on day 7 to IC50 for human ADAMTS5 in presence of Lewis rat plasma; format: ADME, organism-based; settings: in vivo
[5] = Ratio of plasma concentration in Lewis rat model of MIA at 30 mg/kg, po bid administered post 3 days MIA induction measured after 4 hrs of last dosage on day 7 to IC50 for human ADAMTS5 in presence of Lewis rat plasma; format: ADME, organism-based; settings: in vivo
Rattus norvegicus [6] = assay: Reduction in ADAMTS-4/ADAMTS-5 mediated aggrecan cleavage products in Lewis rat model of MIA assessed as aggrecanase-cleaved fragments at 10 mg/kg, po bid administered post 3 days MIA induction measured after 4 hrs of last dosage on day 7 by NITEGE sandwich ELISA; format: functional
[7] = Ratio of plasma concentration in Lewis rat model of MIA at 10 mg/kg, po bid administered post 3 days MIA induction measured after 4 hrs of last dosage on day 7 to IC50 for human ADAMTS5 in presence of Lewis rat plasma; format: ADME, organism-based; settings: in vivo
Rattus norvegicus [8] = assay: Reduction in ADAMTS-4/ADAMTS-5 mediated aggrecan cleavage products in Lewis rat model of MIA assessed as aggrecanase-cleaved fragments at 30 mg/kg, po bid administered post 3 days MIA induction measured after 4 hrs of last dosage on day 7 by NITEGE sandwich ELISA; format: functional
[9] = target: Disintegrin and metalloproteinase domain-containing protein 17 (Homo sapiens, UniProt P78536); assay: Inhibition of human TACE using Mca-PQGL-(3-[2,4-dinitrophenyl]-L-2,3-diaminopropionyl)-AR-OH as substrate measured after 2 to 4 hrs by fluorescence analysis
Disintegrin and metalloproteinase domain-containing protein 17, sequence (P78536 whole entry, the tested form may be a part): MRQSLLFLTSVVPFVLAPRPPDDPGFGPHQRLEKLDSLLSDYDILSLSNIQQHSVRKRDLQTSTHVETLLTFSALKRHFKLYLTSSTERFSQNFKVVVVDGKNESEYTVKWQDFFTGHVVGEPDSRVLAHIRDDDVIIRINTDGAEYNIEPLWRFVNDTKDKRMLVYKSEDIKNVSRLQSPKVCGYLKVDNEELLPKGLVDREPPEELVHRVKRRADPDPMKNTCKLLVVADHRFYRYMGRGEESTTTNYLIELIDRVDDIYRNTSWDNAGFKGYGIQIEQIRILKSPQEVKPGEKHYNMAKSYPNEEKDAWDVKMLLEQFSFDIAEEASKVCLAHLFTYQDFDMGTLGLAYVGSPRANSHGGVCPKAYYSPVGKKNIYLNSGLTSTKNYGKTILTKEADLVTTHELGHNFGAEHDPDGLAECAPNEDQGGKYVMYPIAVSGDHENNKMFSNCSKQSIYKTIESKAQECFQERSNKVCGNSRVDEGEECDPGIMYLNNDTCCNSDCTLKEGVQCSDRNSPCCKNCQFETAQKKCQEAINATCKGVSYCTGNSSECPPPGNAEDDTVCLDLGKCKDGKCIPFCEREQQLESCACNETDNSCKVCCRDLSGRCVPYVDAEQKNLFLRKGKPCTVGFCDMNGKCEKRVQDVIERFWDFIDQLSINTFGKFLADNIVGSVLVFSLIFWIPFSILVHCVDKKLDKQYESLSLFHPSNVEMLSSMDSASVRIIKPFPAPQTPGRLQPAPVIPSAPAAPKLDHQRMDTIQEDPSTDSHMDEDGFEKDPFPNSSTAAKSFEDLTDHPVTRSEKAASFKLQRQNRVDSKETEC

[10] = Plasma concentration in Lewis rat model of MIA at 30 mg/kg, po bid administered post 3 days MIA induction measured after 4 hrs of last dosage on day 7; format: ADME, organism-based
[11] = Plasma concentration in Lewis rat model of MIA at 100 mg/kg, po bid administered post 3 days MIA induction measured after 4 hrs of last dosage on day 7; format: ADME, organism-based
[12] = Dissociation constant, acidic pKa of the compound; format: physicochemical
[13] = Oral bioavailability in dog at 5 mg/kg; format: ADME, organism-based, Canis lupus familiaris; settings: in vivo
[14] = Clearance in cynomolgus monkey at 1 mg/kg, iv or 5 mg/kg, po; format: ADME, organism-based, Macaca fascicularis; settings: in vivo
Rattus norvegicus [15] = assay: Reduction in ADAMTS-4/ADAMTS-5 mediated aggrecan cleavage products in Lewis rat model of MIA assessed as aggrecanase-cleaved fragments at 30 mg/kg, po qd administered post 3 days MIA induction measured after 4 hrs of last dosage on day 7 by NITEGE sandwich ELISA; format: functional
[16] = Fraction unbound in human liver microsomes; format: ADME, Microsome
[17] = Lipophilicity, log P of the compound; format: physicochemical; settings: octanol/water
[18] = Fraction unbound in cynomolgus monkey plasma; format: ADME, cell-free, Macaca fascicularis
[19] = Volume of distribution at steady state in cynomolgus monkey at 1 mg/kg, iv or 5 mg/kg, po; format: ADME, organism-based, Macaca fascicularis; settings: in vivo, read-out: Vdss
[20] = Ratio of plasma concentration in Lewis rat model of MIA at 18 mg/mL, […] post 3 days MIA induction to IC50 for human ADAMTS5 in presence of rat plasma; format: ADME, organism-based; settings: in vivo, 72 h
Rattus norvegicus [21] = assay: Reduction in ADAMTS-4/ADAMTS-5 mediated aggrecan cleavage products in Lewis rat model of MIA assessed as aggrecanase-cleaved fragments at 60 mg/mL administered through infusion pump post 3 days MIA induction measured after 4 hrs of last dosage on day 7 by NITEGE sandwich ELISA; format: functional
Rattus norvegicus [22] = assay: Reduction in ADAMTS-4/ADAMTS-5 mediated aggrecan cleavage products in Lewis rat model of MIA assessed as aggrecanase-cleaved fragments at 18 mg/mL administered through infusion pump post 3 days MIA induction measured after 4 hrs of last dosage on day 7 by NITEGE sandwich ELISA; format: functional
[23] = Half life in cynomolgus monkey at 1 mg/kg, iv or 5 mg/kg, po; format: ADME, organism-based, Macaca fascicularis; settings: in vivo
[24] = Plasma concentration in Lewis rat model of MIA at 18 mg/mL, […] post 3 days MIA induction; format: ADME, organism-based
[25] = Clearance in rat at 1 mg/kg, iv or 10 mg/kg, po; format: ADME, organism-based; settings: in vivo
[26] = Half life in rat at 1 mg/kg, iv or 10 mg/kg, po; format: ADME, organism-based; settings: in vivo
[27] = Oral bioavailability in cynomolgus monkey at 5 mg/kg; format: ADME, organism-based, Macaca fascicularis; settings: in vivo
[28] = Half life in dog at 3 mg/kg, iv or 5 mg/kg, po; format: ADME, organism-based, Canis lupus familiaris; settings: in vivo
[29] = Fraction unbound in human plasma; format: ADME, cell-free
[30] = Clearance in dog at 3 mg/kg, iv or 5 mg/kg, po; format: ADME, organism-based, Canis lupus familiaris; settings: in vivo
[31] = Fraction unbound in dog plasma; format: ADME, cell-free, Canis lupus familiaris
[32] = Fraction unbound in rat plasma; format: ADME, cell-free
[33] = Volume of distribution at steady state in rat at 1 mg/kg, iv or 10 mg/kg, po; format: ADME, organism-based; settings: in vivo, read-out: Vdss
[34] = Volume of distribution at steady state in dog at 3 mg/kg, iv or 5 mg/kg, po; format: ADME, organism-based, Canis lupus familiaris; settings: in vivo, read-out: Vdss
[35] = Plasma concentration in Lewis rat model of MIA at 4.3 mg/mL, sc administered through infusion pump post 3 days MIA induction; format: ADME, organism-based
[36] = Ratio of plasma concentration in Lewis rat model of MIA at 30 mg/mL, sc administered through infusion pump post 3 days MIA induction to IC50 for human ADAMTS5 in presence of rat plasma; format: ADME, organism-based; settings: in vivo, 72 h
[37] = Dissociation constant, basic pKa of the compound; format: physicochemical

Compound: Cc1cnc([C@]2(CNC(=O)c3cc4cc(C(F)(F)F)ccc4o3)NC(=O)NC2=O)n1C
- IC50 (Matrilysin): 100 µM
- concentration at 4 h [1]: 1.4 µM
- Cmax [2]: 11 µM
- inhibition in vivo at 100 mg/kg (Rattus norvegicus [3]): 62%
- Ratio [4]: 490
- Ratio [5]: 76
- inhibition in vivo at 10 mg/kg (Rattus norvegicus [6]): 17%
- Ratio [7]: 22
- inhibition in vivo at 30 mg/kg (Rattus norvegicus [8]): 45%
- IC50 [9]: 10 µM
- concentration at 4 h [10]: 4.8 µM
- concentration at 4 h [11]: 31 µM

Compound: Cc1cnc([C@]2(CNC(=O)c3cc4cc(Cl)ccc4o3)NC(=O)NC2=O)n1C
- Cmax [2]: 18 µM
- IC50 [9]: 8.9 µM

Compound: CCn1ccnc1[C@]1(CNC(=O)c2cc3cc(Cl)ccc3o2)NC(=O)NC1=O
- Cmax [2]: 23 µM
- IC50 [9]: 10 µM

Compound: Cn1ccnc1[C@]1(CNC(=O)c2cc3cc(Cl)ccc3o2)NC(=O)NC1=O
- IC50 (Matrilysin): 100 µM
- Cmax [2]: 11 µM
- IC50 [9]: 10 µM

Compound: O=C1NC(=O)[C@](CNC(=O)c2cc3cc(C(F)(F)F)ccc3o2)(C2CC2)N1
- pKa [12]: 8.52
- IC50 (Matrilysin): 100 µM
- bioavailability [13]: 74%
- clearance [14]: 1 mL/min/kg
- inhibition in vivo at 30 mg/kg (Rattus norvegicus [15]): 52%
- fraction unbound [16]: 0.557
- logP [17]: 2.29
- fraction unbound [18]: 0.229
- Vd [19]: 0.8 L/kg
- Ratio [20]: 35
- inhibition (INH) (Rattus norvegicus [21]): 59%
- inhibition (INH) (Rattus norvegicus [22]): 56%
- half-life [23]: 12 h
- concentration at 72 h [24]: 2.2 µM
- clearance [25]: 13 mL/min/kg
- half-life [26]: 3.8 h
- bioavailability [27]: 100%
- half-life [28]: 9.1 h
- fraction unbound [29]: 0.255
- clearance [30]: 1.3 mL/min/kg
- fraction unbound [31]: 0.215
- fraction unbound [32]: 0.206
- Vd [33]: 3.6 L/kg
- Vd [34]: 0.92 L/kg

Compound: Cn1ccnc1[C@]1(CNC(=O)c2cc3cc(C(F)(F)F)ccc3o2)NC(=O)NC1=O
- pKa [12]: 7.35
- IC50 (Matrilysin): 100 µM
- bioavailability [13]: 93%
- clearance [14]: 7.3 mL/min/kg
- concentration at 4 h [1]: 0.51 µM
- fraction unbound [16]: 0.719
- logP [17]: 1.63
- fraction unbound [18]: 0.248
- Vd [19]: 0.59 L/kg
- inhibition in vivo at 100 mg/kg (Rattus norvegicus [3]): 68%
- concentration at 72 h [35]: 0.36 µM
- Ratio [4]: 310
- Ratio [5]: 46
- half-life [23]: 6.5 h
- inhibition in vivo at 10 mg/kg (Rattus norvegicus [6]): 32%
- clearance [25]: 4.8 mL/min/kg
- half-life [26]: 1.9 h
- bioavailability [27]: 76%
- half-life [28]: 5.7 h
- fraction unbound [29]: 0.245
- Ratio [7]: 15
- inhibition in vivo at 30 mg/kg (Rattus norvegicus [8]): 53%
- clearance [30]: 4.8 mL/min/kg
- fraction unbound [31]: 0.196
- fraction unbound [32]: 0.143
- concentration at 4 h [10]: 1.6 µM
- Ratio [36]: 100
- Vd [33]: 0.31 L/kg
- pKa [37]: 3.67
- Vd [34]: 0.52 L/kg
- concentration at 4 h [11]: 11 µM

Compound: CCn1ccnc1[C@]1(CNC(=O)c2cc3cc(C(F)(F)F)ccc3o2)NC(=O)NC1=O
- IC50 (Matrilysin): 100 µM
- concentration at 4 h [1]: 0.93 µM
- Cmax [2]: 18 µM
- inhibition in vivo at 100 mg/kg (Rattus norvegicus [3]): 49%
- Ratio [4]: 160
- Ratio [5]: 54
- inhibition in vivo at 10 mg/kg (Rattus norvegicus [6]): 19%
- Ratio [7]: 14
- inhibition in vivo at 30 mg/kg (Rattus norvegicus [8]): 35%
- IC50 [9]: 10 µM
- concentration at 4 h [10]: 3.6 µM
- concentration at 4 h [11]: 11 µM
